Target: human Nav1.8 (Homo sapiens (Human), UniProt Q9Y5Y9)
Experiment: QPatch 48 HTX voltage-clamp electrophysiology, half inactivation state (V1/2) protocol, HEK293-Nav1.8 cells
Type: cell-based
Details: HEK293 cells expressing human Nav1.8, human Navβ1 and human TREK1, P2 current
Outline: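 HEK293 cells co-expressing Navβ1 and TREK1 were voltage-clamped from −100 mV: a 20 ms step to 0 mV, 8 s inactivation at −46 mV, 20 ms at −100 mV, then a 20 ms P2 test step to 0 mV, repeated every 15 s. P2 current was normalized to vehicle and full block, corrected for run-down, and Hill-fitted (4–6 concentrations) for IC50.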

human Nav1.8, sequence (Q9Y5Y9 whole entry): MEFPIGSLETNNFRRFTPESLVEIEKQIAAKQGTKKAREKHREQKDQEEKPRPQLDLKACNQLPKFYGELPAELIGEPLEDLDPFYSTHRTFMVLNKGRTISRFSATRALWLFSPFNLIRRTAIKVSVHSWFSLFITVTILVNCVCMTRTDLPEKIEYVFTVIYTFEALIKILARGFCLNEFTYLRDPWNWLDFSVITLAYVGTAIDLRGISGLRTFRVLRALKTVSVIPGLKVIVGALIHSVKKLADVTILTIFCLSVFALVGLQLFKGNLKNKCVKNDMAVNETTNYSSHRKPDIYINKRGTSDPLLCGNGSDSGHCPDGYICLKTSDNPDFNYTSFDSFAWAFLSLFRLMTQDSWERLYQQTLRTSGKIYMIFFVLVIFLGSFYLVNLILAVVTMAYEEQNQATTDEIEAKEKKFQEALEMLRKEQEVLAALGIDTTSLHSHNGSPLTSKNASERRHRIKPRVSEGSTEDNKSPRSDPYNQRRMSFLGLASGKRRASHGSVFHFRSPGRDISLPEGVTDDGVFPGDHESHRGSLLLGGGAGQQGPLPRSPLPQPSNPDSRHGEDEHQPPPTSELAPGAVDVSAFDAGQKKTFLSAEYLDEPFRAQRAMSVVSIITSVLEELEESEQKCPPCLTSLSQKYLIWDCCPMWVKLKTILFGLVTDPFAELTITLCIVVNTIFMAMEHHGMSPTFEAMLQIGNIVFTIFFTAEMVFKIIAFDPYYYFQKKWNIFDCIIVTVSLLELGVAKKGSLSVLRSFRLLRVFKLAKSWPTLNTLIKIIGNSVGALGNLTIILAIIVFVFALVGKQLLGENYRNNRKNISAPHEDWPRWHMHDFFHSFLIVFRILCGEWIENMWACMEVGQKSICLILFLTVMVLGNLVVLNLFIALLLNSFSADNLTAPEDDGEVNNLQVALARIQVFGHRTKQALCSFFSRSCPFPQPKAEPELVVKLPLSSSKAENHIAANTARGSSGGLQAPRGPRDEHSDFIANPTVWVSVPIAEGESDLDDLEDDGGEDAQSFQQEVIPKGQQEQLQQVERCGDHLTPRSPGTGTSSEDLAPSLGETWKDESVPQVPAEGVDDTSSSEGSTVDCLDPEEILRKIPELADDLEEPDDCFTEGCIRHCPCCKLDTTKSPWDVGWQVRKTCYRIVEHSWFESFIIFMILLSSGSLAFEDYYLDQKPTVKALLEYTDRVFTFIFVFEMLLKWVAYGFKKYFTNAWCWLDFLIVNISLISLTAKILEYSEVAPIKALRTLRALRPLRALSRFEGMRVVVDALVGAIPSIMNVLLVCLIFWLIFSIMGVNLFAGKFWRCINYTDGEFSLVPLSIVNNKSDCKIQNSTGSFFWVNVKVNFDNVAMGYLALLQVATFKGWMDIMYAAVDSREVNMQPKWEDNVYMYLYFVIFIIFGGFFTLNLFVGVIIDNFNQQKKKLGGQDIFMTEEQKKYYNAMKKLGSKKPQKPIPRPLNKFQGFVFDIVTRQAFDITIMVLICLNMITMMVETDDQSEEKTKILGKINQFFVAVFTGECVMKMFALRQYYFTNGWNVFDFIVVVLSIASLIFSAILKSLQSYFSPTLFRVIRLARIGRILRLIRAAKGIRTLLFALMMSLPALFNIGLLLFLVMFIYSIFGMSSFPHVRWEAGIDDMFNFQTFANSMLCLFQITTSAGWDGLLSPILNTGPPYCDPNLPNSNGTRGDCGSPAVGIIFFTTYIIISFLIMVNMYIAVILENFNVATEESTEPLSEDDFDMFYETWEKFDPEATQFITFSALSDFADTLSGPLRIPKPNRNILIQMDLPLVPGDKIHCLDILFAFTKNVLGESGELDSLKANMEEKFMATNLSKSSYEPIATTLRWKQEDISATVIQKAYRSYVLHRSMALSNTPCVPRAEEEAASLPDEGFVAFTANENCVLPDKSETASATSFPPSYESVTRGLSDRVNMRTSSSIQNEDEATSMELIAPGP
human Nav1.8, sequence (Q07699 19-218 partner): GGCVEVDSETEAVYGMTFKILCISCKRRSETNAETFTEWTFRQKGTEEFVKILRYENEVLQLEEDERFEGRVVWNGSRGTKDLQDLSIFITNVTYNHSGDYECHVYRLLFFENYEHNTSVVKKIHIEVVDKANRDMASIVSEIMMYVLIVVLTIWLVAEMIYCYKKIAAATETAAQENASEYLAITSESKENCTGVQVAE

| Nav1.8, pIC50 | Compound |
| --- | --- |
| 7.5 | Cl.N#Cc1cc2c(cc1Cl)C(=O)N1CN2c2ccc(F)c(F)c2CNCCc2[nH]c(=O)ccc21 [Example 72, 2-Chloro-8,9-difluoro-15,19-dioxo-10,11,12,13,14,15-hexahydro-19H-5,18-methanodibenzo-[c,f]pyrido[3,2-j][1,5,9]triazacyclotridecine-3-carbonitrile hydrochloride] |
| 6.1 | COc1c(F)ccc2c1CNCCc1[nH]c(=O)ccc1N1CN2c2cc(C#N)c(F)cc2C1=O.Cl [Example 73, 2,8-Difluoro-9-methoxy-15,19-dioxo-10,11,12,13,14,15-hexahydro-19H-5,18-methanodibenzo-[c,f]pyrido[3,2-j][1,5,9]triazacyclotridecine-3-carbonitrile hydrochloride] |
| 7.3 | Cl.O=C1c2cc(F)c(F)cc2N2CN1c1ccc(=O)[nH]c1CCNCc1c2ccc(Cl)c1F [Example 74, 8-Chloro-2,3,9-trifluoro-10,11,12,13-tetrahydro-19H-5,18-methanodibenzo-[c,f]pyrido[3,2-j][1,5,9]triazacyclotridecine-15,19(14H)-dione hydrochloride] |
| 5.4 | Cl.O=C1c2cc(F)c(F)cc2N2CN1c1ccc(=O)[nH]c1CCNCc1c(OC(F)F)cccc12 [Example 75, 9-(Difluoromethoxy)-2,3-difluoro-10,11,12,13-tetrahydro-19H-5,18-methanodibenzo[c,f]pyrido[3,2-j][1,5,9]triazacyclotridecine-15,19(14H)-dione hydrochloride] |
| 7.2 | Cl.O=C1c2cc(F)c(F)cc2N2CN1c1ccc(=O)[nH]c1CCNCc1cc(Cl)ccc12 [Example 76, 8-Chloro-2,3-difluoro-10,11,12,13-tetrahydro-19H-5,18-methanodibenzo[c,f]pyrido[3,2-j][1,5,9]triazacyclotridecine-15,19(14H)-dione hydrochloride] |
| 8.7 | Cl.O=C1c2cc(F)c(F)cc2N2CN1c1ccc(=O)[nH]c1CCNCc1c2ccc(Cl)c1Cl [Example 77, 8,9-Dichloro-2,3-difluoro-10,11,12,13-tetrahydro-19H-5,18-methanodibenzo[c,f]pyrido[3,2-j][1,5,9]triazacyclotridecine-15,19(14H)-dione hydrochloride] |
| 6.7 | Cl.O=C1c2cc(C(F)(F)F)ccc2N2CN1c1ccc(=O)[nH]c1CCNCc1ccccc12 [Example 78, 2-(Trifluoromethyl)-10,11,12,13-tetrahydro-19H-5,18-methanodibenzo[c,f]pyrido[3,2-j][1,5,9]triazacyclotridecine-15,19(14H)-dione hydrochloride] |
| 7.1 | Cl.O=C1c2cc(F)c(F)cc2N2CN1c1ccc(=O)[nH]c1CCNCc1c(C(F)F)cccc12 [Example 79, 9-(Difluoromethyl)-2,3-difluoro-10,11,12,13-tetrahydro-19H-5,18-methanodibenzo[c,f]pyrido[3,2-j][1,5,9]triazacyclotridecine-15,19(14H)-dione hydrochloride] |
| 7.7 | Cl.O=C1c2cc(F)c(C(F)(F)F)cc2N2CN1c1ccc(=O)[nH]c1CCNCc1c(F)cccc12 [Example 80, 2,9-Difluoro-3-(trifluoromethyl)-10,11,12,13-tetrahydro-19H-5,18-methanodibenzo-[c,f]pyrido[3,2-j][1,5,9]triazacyclotridecine-15,19(14H)-dione hydrochloride] |
| 8.5 | Cl.O=C1c2cc(F)c(C(F)(F)F)cc2N2CN1c1ccc(=O)[nH]c1CCNCc1c(Cl)cccc12 [Example 81, 9-Chloro-2-fluoro-3-(trifluoromethyl)-10,11,12,13-tetrahydro-19H-5,18-methanodibenzo-[c,f]pyrido[3,2-j][1,5,9]triazacyclotridecine-15,19(14H)-dione hydrochloride] |

Second part, the compound before the results:

| Compound | Nav1.8, pIC50 |
| --- | --- |
| Cl.O=C1c2cc(F)c(Br)cc2N2CN1c1ccc(=O)[nH]c1CCNCc1cc(F)ccc12 [Example 63, 3-Bromo-2,8-difluoro-10,11,12,13-tetrahydro-19H-5,18-methanodibenzo[c,f]pyrido[3,2-j][1,5,9]triazacyclotridecine-15,19(14H)-dione hydrochloride] | 8 |
| Cl.O=C1c2cc(F)c(F)cc2N2CN1c1ccc(=O)[nH]c1CCNCc1c2ccc(F)c1Cl [Example 64, 9-Chloro-2,3,8-trifluoro-10,11,12,13-tetrahydro-19H-5,18-methanodibenzo[c,f]pyrido[3,2-i][1,5,9]triazacyclotridecine-15,19(14H)-dione hydrochloride] | 8.2 |
| Cl.[2H]C1([2H])N2C(=O)c3cc(F)c(F)cc3N1c1ccc(F)c(Cl)c1CNCCc1[nH]c(=O)ccc12 [Example 65, 9-Chloro-2,3,8-trifluoro-10,11,12,13-tetrahydro-19H-5,18-methanodibenzo[c,f]pyrido[3,2-j][1,5,9]triazacyclotridecine-15,19(14H)-dione-20,20-d2 hydrochloride] | 8.3 |
| Cl.O=C1c2cc(F)c(C(F)(F)F)cc2N2CN1c1ccc(=O)[nH]c1CCNCc1cc(Cl)ccc12 [Example 66, 8-Chloro-2-fluoro-3-(trifluoromethyl)-10,11,12,13-tetrahydro-19H-5,18-methanodibenzo[c,f]pyrido[3,2-j][1,5,9]triazacyclotridecine-15,19(14H)-dione hydrochloride] | 8.2 |
| N#Cc1cc2c(cc1F)C(=O)N1CN2c2ccc(F)c(Cl)c2CNCCc2[nH]c(=O)ccc21 [Example 67, 9-chloro-2,8-difluoro-15,19-dioxo-10,11,12,13,14,15-hexahydro-19H-5,18-methanodibenzo[c,f]pyrido[3,2-j][1,5,9]triazacyclotridecine-3-carbonitrile] | 8.3 |
| Cc1c(F)ccc2c1CNCCc1[nH]c(=O)ccc1N1CN2c2cc(F)c(F)cc2C1=O.Cl [Example 68, 2,3,8-Trifluoro-9-methyl-10,11,12,13-tetrahydro-19H-5,18-methanodibenzo[c,f]pyrido[3,2-j][1,5,9]triazacyclotridecine-15,19(14H)-dione hydrochloride] | 7.7 |
| Cl.O=C1c2cc(Cl)c(F)cc2N2CN1c1ccc(=O)[nH]c1CCNCc1c2ccc(F)c1F [Example 69, 2-Chloro-3,8,9-trifluoro-10,11,12,13-tetrahydro-19H-5,18-methanodibenzo[c,f]pyrido[3,2-j][1,5,9]triazacyclotridecine-15,19(14H)-dione hydrochloride] | 7.6 |
| COc1c(F)ccc2c1CNCCc1[nH]c(=O)ccc1N1CN2c2cc(F)c(F)cc2C1=O.O=CO [Example 70, 2,3,8-Trifluoro-9-methoxy-10,11,12,13-tetrahydro-19H-5,18-methanodibenzo-[c,f]pyrido[3,2-j][1,5,9]triazacyclotridecine-15,19(14H)-dione, Formic acid salt] | 6.1 |
| Cc1c(F)ccc2c1CNCCc1[nH]c(=O)ccc1N1CN2c2cc(C#N)c(F)cc2C1=O.Cl [Example 71, 2,8-Difluoro-9-methyl-15,19-dioxo-10,11,12,13,14,15-hexahydro-19H-518-methanodibenzo-[c,f]pyrido[3,2-j][1,5,9]triazacyclotridecine-3-carbonitrile hydrochloride] | 7.6 |
